Data set [1] relates to patients with relapsed multiple myeloma. The data set is described as follows: Randomized, double-blind, placebo-controlled, multicenter study (PANORAMA-1) of panobinostat plus bortezomib and dexamethasone. It is filed as in vivo. How it is done:
Treatment was administered for a maximum of 16 cycles (48 weeks).
Demographics and baseline disease characteristics were balanced between arms. The median age was 63 years (range 28 to 84); 42% of patients were older than 65 years; 53% of patients were male. The ECOG (Eastern Cooperative Oncology Group) performance status was 0 to 1 in 93% of patients. The median number of prior therapies was 1; 48% of patients received 2 or 3 prior lines of therapy. More than half (57%) of the patients had prior stem cell transplantation. The most common prior antineoplastic therapies were corticosteroids (90%), melphalan (80%), thalidomide (53%), cyclophosphamide (47%), bortezomib (44%), and lenalidomide (19%). The median duration of follow-up was 29 months in both arms.
The primary endpoint was progression-free survival (PFS), using modified European Bone Marrow Transplant Group (EBMT) criteria, as assessed by the investigators. […] The efficacy and safety in a subgroup analysis of 193 patients who had received prior treatment with both bortezomib and an immunomodulatory agent and a median of 2 prior therapies as the benefit: risk appeared to be greater in this more heavily pretreated population than in the overall trial population. Of these 193 patients, 76% of them had received ≥2 prior lines of therapy.

Data set [2] relates to cardiac ventricular repolarization (QT interval). The data set is described as follows: Pooled clinical data from over 500 patients treated with single agent panobinostat: QTc prolongation. It is filed as in vivo, human. The source says: Panobinostat may prolong cardiac ventricular repolarization (QT interval).

On to `Cc1[nH]c2ccccc2c1CCNCc1ccc(/C=C/C(=O)NO)cc1` [panobinostat], for which the serious toxicities observed entry in data set [1] (PANORAMA clinical study, patients receiving panobinostat) is “severe and fatal ischemic events, severe arrhythmias and ECG changes”. In addition, in data set [1] (in vivo), the gastrointestinal toxicity result is “common”. The “incidence of CTC Grade 3 QTc prolongation (QTcF >500 msec)” value in data set [2] (at a dose of 60 mg or higher) is recorded as no less than 5%; in data set [2] (multiple indications, different dose levels, overall) it was “approximately 1%”.

The record behind these values is patent publication US20200093795A1 (Secura Bio, Inc., priority 2015, published 2020).
